According to PubChem BioAssay (NCI):
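Results reflect a 48-hour exposure of cells in 96-well plates to compound at five concentrations. Abbreviation: GI50, concentration required for 50% inhibition of growth. TGI marks complete inhibition of growth.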

Tests used:
Assay in all cases: growth of human tumour cells (NCI), 48 h
OVCAR-8 ovarian = test system: OVCAR-8 ovarian
SK-MEL-5 melanoma = test system: SK-MEL-5 melanoma
CAKI-1 renal = test system: CAKI-1 renal
NCI-H23 lung = test system: NCI-H23 lung
EKVX NSCLC = test system: EKVX NSCLC
ACHN renal = test system: ACHN renal
SK-MEL-28 melanoma = test system: SK-MEL-28 melanoma
SF-268 CNS = test system: SF-268 CNS
MDA-MB-231 breast = test system: MDA-MB-231 breast
MALME-3M melanoma = test system: MALME-3M melanoma
BT-549 breast = test system: BT-549 breast
T-47D breast = test system: T-47D breast
OVCAR-3 ovarian = test system: OVCAR-3 ovarian
MDA-MB-435 = test system: MDA-MB-435
KM12 colon = test system: KM12 colon
CCRF-CEM leukemia = test system: CCRF-CEM leukemia
A498 renal = test system: A498 renal
RXF 393 renal = test system: RXF 393 renal
HS 578T breast = test system: HS 578T breast
SK-OV-3 ovarian = test system: SK-OV-3 ovarian
UO-31 renal = test system: UO-31 renal
UACC-62 melanoma = test system: UACC-62 melanoma
RPMI-8226 leukemia = test system: RPMI-8226 leukemia
K-562 leukemia = test system: K-562 leukemia
SNB-75 CNS = test system: SNB-75 CNS
UACC-257 melanoma = test system: UACC-257 melanoma
M14 melanoma = test system: M14 melanoma
SF-295 CNS = test system: SF-295 CNS
NCI-H460 lung = test system: NCI-H460 lung
MOLT-4 leukemia = test system: MOLT-4 leukemia
NCI-H522 lung = test system: NCI-H522 lung
MCF7 breast = test system: MCF7 breast
SNB-19 CNS = test system: SNB-19 CNS
OVCAR-4 ovarian = test system: OVCAR-4 ovarian
HOP-92 NSCLC = test system: HOP-92 NSCLC
SK-MEL-2 melanoma = test system: SK-MEL-2 melanoma
COLO 205 colon = test system: COLO 205 colon
HL-60(TB) leukemia = test system: HL-60(TB) leukemia
SF-539 CNS = test system: SF-539 CNS
HCT-116 colon = test system: HCT-116 colon
HOP-62 NSCLC = test system: HOP-62 NSCLC
NCI/ADR-RES ovarian = test system: NCI/ADR-RES ovarian
DU-145 prostate = test system: DU-145 prostate
786-0 renal = test system: 786-0 renal
HT29 colon = test system: HT29 colon
SR leukemia = test system: SR leukemia
PC-3 prostate = test system: PC-3 prostate
TK-10 renal = test system: TK-10 renal
NCI-H226 lung = test system: NCI-H226 lung
LOX IMVI melanoma = test system: LOX IMVI melanoma
HCT-15 colon = test system: HCT-15 colon
SN12C renal = test system: SN12C renal
HCC-2998 colon = test system: HCC-2998 colon
OVCAR-5 ovarian = test system: OVCAR-5 ovarian
SW-620 colon = test system: SW-620 colon

Molecule `Nc1cc2c([nH]c[n+]2CC#CCCl)c(SCC#CCCl)n1` has a GI50 (OVCAR-8 ovarian) of 1.62 µM, a TGI (OVCAR-8 ovarian) of 6.02 µM and a GI50 (SK-MEL-5 melanoma) of 1.19 µM. The TGI (SK-MEL-5 melanoma) was 2.43 µM, the GI50 (CAKI-1 renal) was 0.331 µM and the TGI (CAKI-1 renal) was 1.36 µM. It also gave a GI50 (NCI-H23 lung) of 1.23 µM, a TGI (NCI-H23 lung) of 2.62 µM and a GI50 (EKVX NSCLC) of 1.25 µM. For the same molecule, the TGI (EKVX NSCLC) was 2.76 µM, the GI50 (ACHN renal) was 0.58 µM and the TGI (ACHN renal) was 2.94 µM. For the same molecule, the GI50 (SK-MEL-28 melanoma) was 1.34 µM, the TGI (SK-MEL-28 melanoma) was 2.75 µM and the GI50 (SF-268 CNS) was 0.552 µM. For the same molecule, the TGI (SF-268 CNS) was 2.01 µM, the GI50 (MDA-MB-231 breast) was 1.39 µM and the TGI (MDA-MB-231 breast) was 3.2 µM. The GI50 (MALME-3M melanoma) was 1.09 µM, the TGI (MALME-3M melanoma) was 3.17 µM and the GI50 (BT-549 breast) was 1.15 µM. The TGI (BT-549 breast) was 2.42 µM, the GI50 (T-47D breast) was 1.12 µM and the TGI (T-47D breast) was 2.45 µM. The GI50 (OVCAR-3 ovarian) was 0.592 µM, the TGI (OVCAR-3 ovarian) was 1.96 µM and the GI50 (MDA-MB-435) was 1.09 µM. It also gave a TGI (MDA-MB-435) of 2.63 µM, a GI50 (KM12 colon) of 1.25 µM and a TGI (KM12 colon) of 2.68 µM. For the same molecule, the GI50 (CCRF-CEM leukemia) was 0.562 µM, the TGI (CCRF-CEM leukemia) was > 100 µM and the GI50 (A498 renal) was 1.1 µM. For the same molecule, the TGI (A498 renal) was 2.44 µM, the GI50 (RXF 393 renal) was 1.2 µM and the TGI (RXF 393 renal) was 2.56 µM. For the same molecule, the GI50 (HS 578T breast) was 1.69 µM, the TGI (HS 578T breast) was 7.47 µM and the GI50 (SK-OV-3 ovarian) was 1.37 µM. It also gave a TGI (SK-OV-3 ovarian) of 2.81 µM, a GI50 (UO-31 renal) of 0.763 µM and a TGI (UO-31 renal) of 2.33 µM. For the same molecule, the GI50 (UACC-62 melanoma) was 0.455 µM, the TGI (UACC-62 melanoma) was 1.86 µM and the GI50 (RPMI-8226 leukemia) was 1 µM. The TGI (RPMI-8226 leukemia) was 6.57 µM, the GI50 (K-562 leukemia) was 1.97 µM and the TGI (K-562 leukemia) was > 100 µM. For the same molecule, the GI50 (SNB-75 CNS) was 1.14 µM, the TGI (SNB-75 CNS) was 2.4 µM and the GI50 (UACC-257 melanoma) was 0.821 µM. The TGI (UACC-257 melanoma) was 2.74 µM, the GI50 (M14 melanoma) was 1.11 µM and the TGI (M14 melanoma) was 2.49 µM. It also gave a GI50 (SF-295 CNS) of 1.54 µM, a TGI (SF-295 CNS) of 3.08 µM and a GI50 (NCI-H460 lung) of 0.374 µM. The TGI (NCI-H460 lung) was 1.5 µM, the GI50 (MOLT-4 leukemia) was 1.32 µM and the TGI (MOLT-4 leukemia) was > 100 µM. For the same molecule, the GI50 (NCI-H522 lung) was 0.522 µM, the TGI (NCI-H522 lung) was 2.08 µM and the GI50 (MCF7 breast) was 0.442 µM. It also gave a TGI (MCF7 breast) of 2.18 µM, a GI50 (SNB-19 CNS) of 1.4 µM and a TGI (SNB-19 CNS) of 2.84 µM. For the same molecule, the GI50 (OVCAR-4 ovarian) was 1.57 µM, the TGI (OVCAR-4 ovarian) was 7.17 µM and the GI50 (HOP-92 NSCLC) was 1.84 µM. For the same molecule, the TGI (HOP-92 NSCLC) was 3.86 µM, the GI50 (SK-MEL-2 melanoma) was 1.65 µM and the TGI (SK-MEL-2 melanoma) was 4.47 µM. For the same molecule, the GI50 (COLO 205 colon) was 1.46 µM, the TGI (COLO 205 colon) was 2.9 µM and the GI50 (HL-60(TB) leukemia) was 0.388 µM. The TGI (HL-60(TB) leukemia) was 2.64 µM, the GI50 (SF-539 CNS) was 1.62 µM and the TGI (SF-539 CNS) was 3.24 µM. The GI50 (HCT-116 colon) was 0.738 µM, the TGI (HCT-116 colon) was 2.35 µM and the GI50 (HOP-62 NSCLC) was 1.4 µM. It also gave a TGI (HOP-62 NSCLC) of 2.99 µM, a GI50 (NCI/ADR-RES ovarian) of 1.71 µM and a TGI (NCI/ADR-RES ovarian) of 4.24 µM. The GI50 (DU-145 prostate) was 1.05 µM, the TGI (DU-145 prostate) was 2.34 µM and the GI50 (786-0 renal) was 1.27 µM. The TGI (786-0 renal) was 3.05 µM, the GI50 (HT29 colon) was 0.883 µM and the TGI (HT29 colon) was 2.52 µM. It also gave a GI50 (SR leukemia) of 0.336 µM, a TGI (SR leukemia) of 16.4 µM and a GI50 (PC-3 prostate) of 1.4 µM. The TGI (PC-3 prostate) was 4.34 µM, the GI50 (TK-10 renal) was 1.42 µM and the TGI (TK-10 renal) was 3.04 µM. The GI50 (NCI-H226 lung) was 1.22 µM, the TGI (NCI-H226 lung) was 4.12 µM and the GI50 (LOX IMVI melanoma) was 0.363 µM. For the same molecule, the TGI (LOX IMVI melanoma) was 1.44 µM, the GI50 (HCT-15 colon) was 1.22 µM and the TGI (HCT-15 colon) was 2.89 µM. The GI50 (SN12C renal) was 1.16 µM, the TGI (SN12C renal) was 3.42 µM and the GI50 (HCC-2998 colon) was 1.77 µM. For the same molecule, the TGI (HCC-2998 colon) was 3.17 µM, the GI50 (OVCAR-5 ovarian) was 2.13 µM and the TGI (OVCAR-5 ovarian) was 3.68 µM. For the same molecule, the GI50 (SW-620 colon) was 1.17 µM and the TGI (SW-620 colon) was 2.7 µM.
